Article PMC5298231, “The Malaria Parasite's Lactate Transporter PfFNT Is the Target of Antiplasmodial Compounds Identified in Whole Cell Phenotypic Screens” (PLoS Pathogens, 2017)
Read-outs that look alike come from different tables or passages of the source.

Tested on: erythrocytes infected with 3D7 trophozoites
Assay type: cell-based, Plasmodium falciparum
Conditions: 6 μM

COc1ccc2c(c1)OC(O)(C(F)(F)C(F)(F)F)CC2=O (stereo not shown) [MMV007839]
Serine log2 ratio (+MMV007839/-MMV007839) (Av 3hr): 0.166
Succinate log2 ratio (+MMV007839/-MMV007839) (Av 3hr): -0.2462
Succinate semialdehyde log2 ratio (+MMV007839/-MMV007839) (Av 3hr): -0.7119
TNVK log2 ratio (+MMV007839/-MMV007839) (Av 3hr): -1.745
Threonine log2 ratio (+MMV007839/-MMV007839) (Av 3hr): 0.01502
Tryptophan log2 ratio (+MMV007839/-MMV007839) (Av 3hr): -0.2359
Tyrosine log2 ratio (+MMV007839/-MMV007839) (Av 3hr): -0.01653
UDP log2 ratio (+MMV007839/-MMV007839) (Av 3hr): -0.7159
UDP-N-acetyl-D-glucosamine log2 ratio (+MMV007839/-MMV007839) (Av 3hr): 0.05247
UDP-glucose log2 ratio (+MMV007839/-MMV007839) (Av 3hr): -0.07837
UMP log2 ratio (+MMV007839/-MMV007839) (Av 3hr): -0.2624
Uracil log2 ratio (+MMV007839/-MMV007839) (Av 3hr): -0.6081
Uric Acid log2 ratio (+MMV007839/-MMV007839) (Av 3hr): -0.1135
VD log2 ratio (+MMV007839/-MMV007839) (Av 3hr): 1.073
Valine log2 ratio (+MMV007839/-MMV007839) (Av 3hr): -0.194
Xanthine log2 ratio (+MMV007839/-MMV007839) (Av 3hr): -0.464
dADP log2 ratio (+MMV007839/-MMV007839) (Av 3hr): -1.193
dATP log2 ratio (+MMV007839/-MMV007839) (Av 3hr): -0.03116
dCDP log2 ratio (+MMV007839/-MMV007839) (Av 3hr): 0.3315
dGMP log2 ratio (+MMV007839/-MMV007839) (Av 3hr): 0.1661
dTMP log2 ratio (+MMV007839/-MMV007839) (Av 3hr): 0.1316
dTTP log2 ratio (+MMV007839/-MMV007839) (Av 3hr): -0.08156
dUMP log2 ratio (+MMV007839/-MMV007839) (Av 3hr): 1.365
myo-Inositol log2 ratio (+MMV007839/-MMV007839) (Av 3hr): -0.258
sn-Glycerol 3-phosphate log2 ratio (+MMV007839/-MMV007839) (Av 3hr): 1.559
sn-glycero-3-Phospho-1-inositol log2 ratio (+MMV007839/-MMV007839) (Av 3hr): 0.1698
Hexose-phosphate log2 ratio (+MMV007839/-MMV007839) (Av 3hr, medRt 15.0954): -0.3219
6-Phospho-D-gluconate log2 ratio (+MMV007839/-MMV007839) (Av 3hr, medRt 16.8944): -0.6275
Hexose-phosphate log2 ratio (+MMV007839/-MMV007839) (Av 3hr, medRt 17.0788): -1.577
6-Phospho-D-gluconate log2 ratio (+MMV007839/-MMV007839) (Av 3hr, medRt 17.4636): -0.2282
1-3 (2-3)-diphopshateglycerate log2 ratio (+MMV007839/-MMV007839) (Av 6hr): 0.3636
2-Hydroxyglutarate log2 ratio (+MMV007839/-MMV007839) (Av 6hr): -0.3824
2-Ketoglutarate log2 ratio (+MMV007839/-MMV007839) (Av 6hr): -0.4713
3-Phosho-D-glycerate log2 ratio (+MMV007839/-MMV007839) (Av 6hr): 0.02516
3-Phospho-serine log2 ratio (+MMV007839/-MMV007839) (Av 6hr): -0.6364
4-Aminobutanoate log2 ratio (+MMV007839/-MMV007839) (Av 6hr): 1.092
5-Phosphoribosyl-1-pyrophosphate log2 ratio (+MMV007839/-MMV007839) (Av 6hr): 0.556
ADP log2 ratio (+MMV007839/-MMV007839) (Av 6hr): -0.3027
AMP log2 ratio (+MMV007839/-MMV007839) (Av 6hr): -0.04039
ATLS log2 ratio (+MMV007839/-MMV007839) (Av 6hr): -0.1601
ATP log2 ratio (+MMV007839/-MMV007839) (Av 6hr): -0.3608
Acetyl-CoA log2 ratio (+MMV007839/-MMV007839) (Av 6hr): -0.9886
Acetyl-L-alanine log2 ratio (+MMV007839/-MMV007839) (Av 6hr): -0.3969
Adenine log2 ratio (+MMV007839/-MMV007839) (Av 6hr): -0.7079
Arginine log2 ratio (+MMV007839/-MMV007839) (Av 6hr): 0.2024
Asparagine log2 ratio (+MMV007839/-MMV007839) (Av 6hr): 0.205
Aspartic Acid log2 ratio (+MMV007839/-MMV007839) (Av 6hr): -0.08675
CDP log2 ratio (+MMV007839/-MMV007839) (Av 6hr): -0.2824
CDP-ethanolamine log2 ratio (+MMV007839/-MMV007839) (Av 6hr): -0.09908
CMP log2 ratio (+MMV007839/-MMV007839) (Av 6hr): 0.2839
CTP log2 ratio (+MMV007839/-MMV007839) (Av 6hr): -0.5655
Cholesteryl sulfate log2 ratio (+MMV007839/-MMV007839) (Av 6hr): -0.1903
Citrate log2 ratio (+MMV007839/-MMV007839) (Av 6hr): -0.1627
CoA log2 ratio (+MMV007839/-MMV007839) (Av 6hr): -0.6499
Cyclic AMP log2 ratio (+MMV007839/-MMV007839) (Av 6hr): -1.349
Cytidine log2 ratio (+MMV007839/-MMV007839) (Av 6hr): 0.1751
D-Glucono-1-4-lactone log2 ratio (+MMV007839/-MMV007839) (Av 6hr): 2.219
DALT log2 ratio (+MMV007839/-MMV007839) (Av 6hr): 0.7209
DEVG log2 ratio (+MMV007839/-MMV007839) (Av 6hr): -0.06216
DGLA log2 ratio (+MMV007839/-MMV007839) (Av 6hr): 0.8365
DLS log2 ratio (+MMV007839/-MMV007839) (Av 6hr): -0.1236
Deoxycytidine log2 ratio (+MMV007839/-MMV007839) (Av 6hr): 1.626
Dihydroorotate log2 ratio (+MMV007839/-MMV007839) (Av 6hr): -1.004
ESFG log2 ratio (+MMV007839/-MMV007839) (Av 6hr): 0.5044
EVGG log2 ratio (+MMV007839/-MMV007839) (Av 6hr): -0.2203
Erythrose 4-phosphate log2 ratio (+MMV007839/-MMV007839) (Av 6hr): -0.7036
FAD log2 ratio (+MMV007839/-MMV007839) (Av 6hr): -0.616
FMN log2 ratio (+MMV007839/-MMV007839) (Av 6hr): -0.6137
Farnesyl diphosphate log2 ratio (+MMV007839/-MMV007839) (Av 6hr): -0.2783
Folate log2 ratio (+MMV007839/-MMV007839) (Av 6hr): -0.4942
Fructose-1-6-bisphosphate log2 ratio (+MMV007839/-MMV007839) (Av 6hr): 0.3974
Fructose-6-Phosphate log2 ratio (+MMV007839/-MMV007839) (Av 6hr): -0.1081
GDP log2 ratio (+MMV007839/-MMV007839) (Av 6hr): -0.8963
GDP-mannose log2 ratio (+MMV007839/-MMV007839) (Av 6hr): -1.076
GMP log2 ratio (+MMV007839/-MMV007839) (Av 6hr): -0.8795
GTP log2 ratio (+MMV007839/-MMV007839) (Av 6hr): -0.6956
Geranylgeranyl pyrophosphate log2 ratio (+MMV007839/-MMV007839) (Av 6hr): -0.7121
Gluconate log2 ratio (+MMV007839/-MMV007839) (Av 6hr): -0.0152
Glucose-6-Phosphate log2 ratio (+MMV007839/-MMV007839) (Av 6hr): -0.5083
Glutamate log2 ratio (+MMV007839/-MMV007839) (Av 6hr): -0.02563
Glutamine log2 ratio (+MMV007839/-MMV007839) (Av 6hr): 1.089
Glutathione disulfide log2 ratio (+MMV007839/-MMV007839) (Av 6hr): -0.1925
Glutathione log2 ratio (+MMV007839/-MMV007839) (Av 6hr): -0.4326
Glyceraldehyde 3-phosphate log2 ratio (+MMV007839/-MMV007839) (Av 6hr): -1.148
Glycerone phosphate log2 ratio (+MMV007839/-MMV007839) (Av 6hr): -0.3794
HLD log2 ratio (+MMV007839/-MMV007839) (Av 6hr): 0.5581
HVDD log2 ratio (+MMV007839/-MMV007839) (Av 6hr): 0.02571
Histidine log2 ratio (+MMV007839/-MMV007839) (Av 6hr): 1.263
Homoserine log2 ratio (+MMV007839/-MMV007839) (Av 6hr): 0.6347
Hydroxy-L-proline log2 ratio (+MMV007839/-MMV007839) (Av 6hr): -0.1227
Hypoxanthine log2 ratio (+MMV007839/-MMV007839) (Av 6hr): 0.2056
IDP log2 ratio (+MMV007839/-MMV007839) (Av 6hr): 0.2522
IMP log2 ratio (+MMV007839/-MMV007839) (Av 6hr): -0.2109
Inosine log2 ratio (+MMV007839/-MMV007839) (Av 6hr): 0.5174
Isoleucine log2 ratio (+MMV007839/-MMV007839) (Av 6hr): 0.1143
LD log2 ratio (+MMV007839/-MMV007839) (Av 6hr): 0.1248
Lactate log2 ratio (+MMV007839/-MMV007839) (Av 6hr): 2.505
Leucine log2 ratio (+MMV007839/-MMV007839) (Av 6hr): 0.06585
Lysine log2 ratio (+MMV007839/-MMV007839) (Av 6hr): 1.1316
Malate log2 ratio (+MMV007839/-MMV007839) (Av 6hr): -0.236
Mannitol log2 ratio (+MMV007839/-MMV007839) (Av 6hr): -0.1109
Methionine log2 ratio (+MMV007839/-MMV007839) (Av 6hr): -0.2224
Myristic acid log2 ratio (+MMV007839/-MMV007839) (Av 6hr): -0.7184
N-Acetyl-glutamate log2 ratio (+MMV007839/-MMV007839) (Av 6hr): -1.091
N-Carbamoyl-L-aspartate log2 ratio (+MMV007839/-MMV007839) (Av 6hr): -1.386
NAD+ log2 ratio (+MMV007839/-MMV007839) (Av 6hr): 0.1336
